This is an account of results in paper PMC2954496 (Bioorganic & medicinal chemistry, 2010).

Converted amounts (≈) assume the structure as drawn.

For one data set, the system named is HIV-RT. The conditions noted are these: preliminary mechanism of action studies; cited from earlier work.
A short description of data set [1]: Water solubility analysis by HPLC. Format: physicochemical.

As to `Cc1cc(=O)oc2c3c(ccc12)OC(C)(C)[C@H](OC(=O)[C@@]12CC[C@@](C)(C(=O)O1)C2(C)C)[C@@H]3OC(=O)[C@@]12CC[C@@](C)(C(=O)O1)C2(C)C` [Compound 4-MDCK, 4-methyl DCK], the “Inhibition of HIV-RT DNA-dependent DNA polymerase activity” value in the data set on HIV-RT is listed as “inhibited”.

`Cc1cc(=O)c2c(C)cc3c(c2o1)[C@@H](OC(=O)[C@@]12CC[C@@](C)(C(=O)O1)C2(C)C)[C@@H](OC(=O)[C@@]12CC[C@@](C)(C(=O)O1)C2(C)C)C(C)(C)O3` [Compound 5, 3′R,4′R-Di-O-(−)-camphanoyl-2,5,2′,2′-tetramethyldihydropyrano[2,3-f]chromone]: the concentration in solution in data set [1] (solubility at 1 h) was 5.2 µg/mL (≈ 7.99 µM).
